Experimental data reported in the supplement of paper PMC12533247.
± gives the standard deviation of the averaged measurements.

System: HSV-1 K26-GFP infected primary human skin cells
Test: % change of HSV-1 GFP signal vs untreated infected cells; higher = less antiviral inhibition
Procedure: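 2D primary donor-derived keratinocytes (read at 20 hpi) and donor-matched dermal fibroblasts (read at 48 hpi) infected with GFP-HSV-1 K26 at MOI 1 and treated 1 h later with compound dilutions. IncuCyte GFP integrated intensity is normalised by subtracting mock-infected wells and dividing by untreated infected wells, shown as % change (-100 = full inhibition).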

O=C(Nc1ccc([N+](=O)[O-])cc1Cl)c1cc(Cl)ccc1O [Niclosamide]
% change of HSV-1 GFP signal [%]
Details | 0.003 µM | 0.0091 µM | 0.0274 µM | 0.0823 µM | 0.2469 µM | 0.7407 µM | 2.2222 µM | 6.6667 µM | 20 µM | 60 µM
cell type: primary dermal fibroblasts, donor: 5, time (h post infection): 48 | -6.14 ± 6.4 | -7.3 ± 5.1 | -10.1 ± 6 | -19.9 ± 5 | -37 ± 9.8 | -51.4 ± 16 | -90 ± 7.7 | -99.53 ± 0.32 | -99.789 ± 0.084 | -99.78 ± 0.065
cell type: primary keratinocytes, donor: 3, time (h post infection): 20 | 4.62 ± 16 | 3.94 ± 9.8 | 6.19 ± 16 | 9.78 ± 21 | 4.16 ± 14 | 0.034 ± 15 | -16.7 ± 26 | -24.7 ± 35 | -62.7 ± 18 | -81.3 ± 3.5
cell type: primary keratinocytes, donor: 4, time (h post infection): 20 | -0.953 ± 16 | -7.59 ± 19 | -0.315 ± 5.2 | -0.334 ± 8 | -9.22 ± 18 | -11.5 ± 12 | -22.6 ± 18 | -42.3 ± 1.7 | -61.2 ± 40 | -95.4 ± 1.5
cell type: primary keratinocytes, donor: 5, time (h post infection): 20 | 2.55 ± 6.4 | -1.84 ± 1.7 | 0.0858 ± 1.5 | 1.91 ± 4.6 | 2.59 ± 1.4 | -2.44 ± 8.4 | -35.9 ± 49 | -52.8 ± 46 | -76.5 ± 22 | -95.1 ± 2

Cc1nc(N(C)C(=O)Cc2ccc(-c3ccccn3)cc2)sc1S(N)(=O)=O [Pritelivir]
% change of HSV-1 GFP signal [%]
Details | 0.001 µM | 0.003 µM | 0.0091 µM | 0.0274 µM | 0.0823 µM | 0.2469 µM | 0.7407 µM | 2.2222 µM | 6.6667 µM | 20 µM
cell type: primary dermal fibroblasts, donor: 5, time (h post infection): 48 | -6.88 ± 4.5 | -8.21 ± 4.4 | -6.16 ± 4.9 | -14.2 ± 7.1 | -21.8 ± 12 | -61.5 ± 13 | -88.3 ± 2.3 | -99.754 ± 0.022 | -99.905 ± 0.036 | -99.853 ± 0.025
cell type: primary keratinocytes, donor: 3, time (h post infection): 20 | 6.78 ± 11 | 7.17 ± 9 | 4.27 ± 4.4 | 0.771 ± 5.4 | -17.7 ± 10 | -65.2 ± 8.8 | -88.8 ± 3.1 | -97.9 ± 1.2 | -98.88 ± 0.32 | -98.8 ± 0.49
cell type: primary keratinocytes, donor: 4, time (h post infection): 20 | 1.71 ± 13 | 10.5 ± 9.8 | 3.75 ± 11 | -0.535 ± 6.8 | -26 ± 26 | -77.35 ± 0.24 | -95.7 ± 1.6 | -99.05 ± 0.63 | -99.54 ± 0.37 | -99.35 ± 0.34
cell type: primary keratinocytes, donor: 5, time (h post infection): 20 | 3.7 ± 11 | 2.94 ± 0.24 | 1.99 ± 4.4 | -6.85 ± 0.35 | -31.7 ± 11 | -72.3 ± 10 | -94.1 ± 3.8 | -99.54 ± 0.45 | -99.63 ± 0.33 | -99.66 ± 0.35
